Test results taken from patent US20260297060A1, “COMPOUNDS FOR THE DEGRADATION OF MUTANT BRAF” (C4 THERAPEUTICS, INC., priority 2023, published 2026).
Like-named read-outs stand apart in the source and are kept apart here.

Target: T1, BRAF V600E (Homo sapiens, UniProt P15056+Q96SW2, V600E)
T1 construct: knock-in of the HiBiT tag to the endogenous BRAF V600E locus; host or cells: A375.10 (A375 clonal line, CRISPR HiBiT knock-in at the endogenous BRAF V600E locus)
Assay: BRAF V600E HiBiT Degradation Assay
Type: cell-based
How it was run: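 Endogenous HiBiT knock-in on BRAF V600E in A375 cells (clone A375.10); 11-point half-log series, top 10 μM, 2, 6 or 24 h at 37° C. Lytic HiBiT luminescence, background-subtracted, normalized to DMSO; 4-parameter fit gives DC50, Emax (residual protein) and IP (inflection point).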

[1] = A375.10 cells, BRAF V600E, 2 hours, inflection point, read-out: HiBiT-Degradation A375.10 BRAF 2 hours IP
[2] = A375.10 cells, BRAF V600E, 2 hours, read-out: HiBiT-Degradation A375.10 BRAF 2 hours DC50
[3] = A375.10 cells, BRAF V600E, 6 hours, inflection point, read-out: HiBiT-Degradation A375.10 BRAF 6 hours IP
[4] = A375.10 cells, BRAF V600E, 6 hours, read-out: HiBiT-Degradation A375.10 BRAF 6 hours DC50
[5] = A375.10 cells, BRAF V600E, 6 hours, residual protein remaining, read-out: HiBiT-Degradation A375.10 BRAF 6 hours Emax
[6] = A375.10 cells, HiBiT, BRAF V600E, 24 hours, read-out: HiBiT-Degradation A375.10 BRAF 24 hours DC50
[7] = A375.10 cells, HiBiT, BRAF V600E, 24 hours, read-out: HiBiT-Degradation A375.10 BRAF 24 hours Emax
[8] = A375.10 cells, HiBiT, BRAF V600E, 24 hours, read-out: HiBiT-Degradation A375.10 BRAF 24 hours IP
[9] = read-out: HiBiT-Degradation A375.10 BRAF 2 hours Emax, A375.10 cells, BRAF V600E, 2 hours, residual protein remaining
[10] = A375.10 cells, BRAF V600E, 2 hours, residual protein remaining, read-out: HiBiT-Degradation A375.10 BRAF 2 hours Emax

T1 sequence (P15056 whole entry V600E): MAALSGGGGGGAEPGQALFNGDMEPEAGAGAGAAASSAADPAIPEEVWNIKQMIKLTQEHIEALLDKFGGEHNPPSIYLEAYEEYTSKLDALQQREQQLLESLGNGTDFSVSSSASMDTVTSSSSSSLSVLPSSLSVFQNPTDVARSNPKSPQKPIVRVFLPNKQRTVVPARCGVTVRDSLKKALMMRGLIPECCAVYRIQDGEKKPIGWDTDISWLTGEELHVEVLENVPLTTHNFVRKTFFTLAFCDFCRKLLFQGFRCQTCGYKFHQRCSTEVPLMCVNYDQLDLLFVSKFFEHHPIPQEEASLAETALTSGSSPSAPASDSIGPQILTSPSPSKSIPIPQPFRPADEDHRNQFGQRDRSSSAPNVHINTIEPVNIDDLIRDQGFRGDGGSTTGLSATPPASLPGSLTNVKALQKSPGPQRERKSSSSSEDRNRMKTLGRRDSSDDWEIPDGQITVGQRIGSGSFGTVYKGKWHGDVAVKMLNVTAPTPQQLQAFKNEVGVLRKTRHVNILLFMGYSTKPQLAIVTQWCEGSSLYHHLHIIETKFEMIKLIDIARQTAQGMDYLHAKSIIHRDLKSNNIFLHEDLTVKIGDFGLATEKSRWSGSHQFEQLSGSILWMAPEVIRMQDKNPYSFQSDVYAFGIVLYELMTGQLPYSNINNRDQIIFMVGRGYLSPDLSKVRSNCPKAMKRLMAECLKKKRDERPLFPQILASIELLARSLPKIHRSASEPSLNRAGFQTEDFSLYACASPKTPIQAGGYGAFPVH
T1 sequence (Q96SW2 whole entry): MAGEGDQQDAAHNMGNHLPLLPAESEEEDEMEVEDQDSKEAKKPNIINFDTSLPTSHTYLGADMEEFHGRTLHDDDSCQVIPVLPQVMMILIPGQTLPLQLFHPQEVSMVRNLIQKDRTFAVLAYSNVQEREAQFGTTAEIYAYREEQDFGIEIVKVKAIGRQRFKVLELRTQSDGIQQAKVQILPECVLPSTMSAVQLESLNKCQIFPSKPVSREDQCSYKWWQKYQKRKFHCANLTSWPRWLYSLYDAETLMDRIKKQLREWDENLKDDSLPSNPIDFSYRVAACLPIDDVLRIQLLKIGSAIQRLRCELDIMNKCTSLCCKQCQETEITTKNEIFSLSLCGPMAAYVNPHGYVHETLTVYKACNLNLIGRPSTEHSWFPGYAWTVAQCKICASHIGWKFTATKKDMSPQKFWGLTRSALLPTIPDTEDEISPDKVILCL
T1 sequence (Q16531 whole entry partner): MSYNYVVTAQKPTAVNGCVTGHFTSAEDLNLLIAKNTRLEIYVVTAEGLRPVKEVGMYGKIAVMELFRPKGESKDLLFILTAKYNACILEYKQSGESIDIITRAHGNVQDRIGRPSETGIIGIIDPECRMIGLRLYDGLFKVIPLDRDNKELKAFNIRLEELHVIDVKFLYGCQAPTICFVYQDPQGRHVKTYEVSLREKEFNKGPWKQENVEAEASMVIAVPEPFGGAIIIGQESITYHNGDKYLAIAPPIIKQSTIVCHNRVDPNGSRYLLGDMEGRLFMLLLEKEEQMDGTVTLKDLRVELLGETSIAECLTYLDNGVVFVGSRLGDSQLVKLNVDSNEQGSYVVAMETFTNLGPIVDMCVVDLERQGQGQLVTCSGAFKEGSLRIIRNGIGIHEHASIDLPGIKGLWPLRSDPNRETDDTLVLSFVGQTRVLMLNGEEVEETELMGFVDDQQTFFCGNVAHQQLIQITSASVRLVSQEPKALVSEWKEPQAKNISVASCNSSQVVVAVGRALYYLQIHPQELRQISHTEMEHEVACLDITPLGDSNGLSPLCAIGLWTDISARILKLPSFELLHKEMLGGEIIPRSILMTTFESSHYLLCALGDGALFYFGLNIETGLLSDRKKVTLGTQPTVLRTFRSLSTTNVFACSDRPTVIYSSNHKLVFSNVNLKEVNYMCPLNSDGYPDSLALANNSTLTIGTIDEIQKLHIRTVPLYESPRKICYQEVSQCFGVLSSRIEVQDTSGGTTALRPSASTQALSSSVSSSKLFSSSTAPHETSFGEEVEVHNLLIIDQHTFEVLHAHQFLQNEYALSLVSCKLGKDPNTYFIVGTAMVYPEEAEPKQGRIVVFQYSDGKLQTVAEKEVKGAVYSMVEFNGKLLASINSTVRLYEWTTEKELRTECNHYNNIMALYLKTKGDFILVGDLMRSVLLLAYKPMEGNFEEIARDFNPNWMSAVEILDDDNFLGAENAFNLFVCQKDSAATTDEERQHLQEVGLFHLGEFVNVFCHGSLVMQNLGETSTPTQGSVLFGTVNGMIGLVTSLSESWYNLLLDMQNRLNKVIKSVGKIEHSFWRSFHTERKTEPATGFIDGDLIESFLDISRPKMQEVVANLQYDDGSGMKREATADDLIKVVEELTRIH

SMILES | DC50 [1] | DC50 [2] | DC50 [3] | DC50 [4] | Emax [5] | DC50 [6] | Emax [7] | DC50 [8] | Emax [9] | Emax [10] | HiBiT-Degradation A375.10 BRAF 2 hours Emax
CCN(C)S(=O)(=O)Nc1ccc(F)c(Oc2ccc3ncc([C@H]4COC5(CCN(C6CCC(c7cc8c(cc7F)c(N7CCC(=O)NC7=O)nn8C)CC6)CC5)C4)nc3c2)c1C#N (single isomer, unassigned) [Compound 48] | < 1000 nM | < 1000 nM | < 1000 nM | < 1000 nM | < 50% | < 1000 nM | < 50% | < 1000 nM | < 50% |  | 
CO[C@H]1CCN(S(=O)(=O)Nc2ccc(F)c(Oc3ccc4ncn([C@H]5COC6(CCN(C7CC8(C7)CN(c7cc9c(cc7F)c(N7CCC(=O)NC7=O)nn9C)C8)CC6)C5)c(=O)c4c3)c2C#N)C1 [Compound 157, (3S)-N-[2-cyano-3-[3-[(3R)-8-[2-[3-(2,4-dioxohexahydropyrimidin-1-yl)-5-fluoro-1-methyl-indazol-6-yl]-2-azaspiro[3.3]heptan-6-yl]-1-oxa-8-azaspiro[4.5]decan-3-yl]-4-oxo-quinazolin-6-yl]oxy-4-fluoro-phenyl]-3-methoxy-pyrrolidine-1-sulfonamide] | < 1000 nM | < 1000 nM | < 1000 nM | < 1000 nM | < 50% | < 1000 nM | < 50% | < 1000 nM | 50 to 90% |  | 
CC(C)S(=O)(=O)Nc1ccc(F)c(Oc2ccc3ncn(C4CC5(CCN(C6CCC(c7cc8c(cc7F)c(N7CCC(=O)NC7=O)nn8C)CC6)CC5)C4)c(=O)c3c2)c1C#N (single isomer, unassigned) [Compound 95, N-[2-cyano-3-[3-[7-[4-[3-(2,4-dioxohexahydropyrimidin-1-yl)-5-fluoro-1-methyl-indazol-6-yl]cyclohexyl]-7-azaspiro[3.5]nonan-2-yl]-4-oxo-quinazolin-6-yl]oxy-4-fluoro-phenyl]propane-2-sulfonamide] | < 1000 nM | < 1000 nM | < 1000 nM | < 1000 nM | < 50% | < 1000 nM | < 50% | < 1000 nM |  | < 50% | 
CCN(C)S(=O)(=O)Nc1ccc(F)c(Oc2ccc3ncn([C@@H]4C[C@@H]5CN(C6CCC(c7ccc(NC8CCC(=O)NC8=O)cc7F)CC6)C[C@@H]5C4)c(=O)c3c2)c1C#N (single isomer, unassigned) [Compound 21] | < 1000 nM | < 1000 nM | < 1000 nM | < 1000 nM | < 50% | < 1000 nM | < 50% | < 1000 nM |  | < 50% | 
CC(C)S(=O)(=O)Nc1ccc(F)c(Oc2ccc3ncn([C@H]4COC5(CCN(C6CCC(c7ccc(NC8CCC(=O)NC8=O)cc7F)CC6)CC5)C4)c(=O)c3c2)c1C#N (single isomer, unassigned) [Compound 92] | < 1000 nM | < 1000 nM | < 1000 nM | < 1000 nM | < 50% | < 1000 nM | < 50% | < 1000 nM |  | < 50% | 
CO[C@H]1CCN(S(=O)(=O)Nc2ccc(F)c(Oc3ccc4ncn([C@H]5COC6(CCN(C7CCC(c8cc9c(cc8F)c(N8CCC(=O)NC8=O)nn9C)CC7)CC6)C5)c(=O)c4c3)c2C#N)C1 (single isomer, unassigned) [Compound 115] | < 1000 nM | < 1000 nM | < 1000 nM | < 1000 nM | < 50% | < 1000 nM | < 50% | < 1000 nM |  | < 50% | 
CCN(C)S(=O)(=O)Nc1ccc(F)c(Nc2ccc3ncn([C@H]4COC5(CCN(C6CCC(c7cc8c(cc7F)c(N7CCC(=O)NC7=O)nn8C)CC6)CC5)C4)c(=O)c3c2)c1C#N (single isomer, unassigned) [Compound 64] | < 1000 nM | < 1000 nM | < 1000 nM | < 1000 nM | < 50% | < 1000 nM | < 50% | < 1000 nM |  | < 50% | 
CCN(C)S(=O)(=O)Nc1ccc(F)c(Oc2ccc3ncc([C@H]4COC5(CCN(C6CCC(c7ccc(NC8CCC(=O)NC8=O)cc7F)CC6)CC5)C4)nc3c2)c1C#N (single isomer, unassigned) [Compound 58] | < 1000 nM | < 1000 nM | < 1000 nM | < 1000 nM | < 50% | < 1000 nM | < 50% | < 1000 nM | < 50% |  | 
CCN(C)S(=O)(=O)Nc1ccc(F)c(Oc2ccc3ncn(C4CC5(CCN(C6CC7(CCN(c8cc9c(cc8F)c(N8CCC(=O)NC8=O)nn9C)CC7)C6)CC5)C4)c(=O)c3c2)c1C#N (stereo not drawn) [Compound 198, 6-[2-cyano-3-[[ethyl(methyl)sulfamoyl]amino]-6-fluoro-phenoxy]-3-[7-[7-[3-(2,4-dioxohexahydropyrimidin-1-yl)-5-fluoro-1-methyl-indazol-6-yl]-7-azaspiro[3.5]nonan-2-yl]-7-azaspiro[3.5]nonan-2-yl]-4-oxo-quinazoline] | < 1000 nM | < 1000 nM |  |  |  | < 1000 nM | < 50% | < 1000 nM | < 50% |  | 
CCN(C)S(=O)(=O)Nc1ccc(F)c(Oc2ccc3ncn([C@H]4COC5(CCN(C6CCC(c7ccc(NC8CCC(=O)NC8=O)cc7F)CC6)CC5)C4)c(=O)c3c2F)c1C#N (single isomer, unassigned) [Compound 50] | < 1000 nM | < 1000 nM | < 1000 nM | < 1000 nM | < 50% | < 1000 nM | < 50% | < 1000 nM |  | < 50% | 
Cn1nc(N2CCC(=O)NC2=O)c2cc(F)c(N3CC4(CC(N5CCC6(CC5)C[C@@H](n5cnc7ccc(Oc8c(F)ccc(NS(=O)(=O)N9CC%10(CCC%10)C9)c8C#N)cc7c5=O)CO6)C4)C3)cc21 [Compound 254, N-[2-cyano-3-[3-[(3R)-8-[2-[3-(2,4-dioxohexahydropyrimidin-1-yl)-5-fluoro-1-methyl-indazol-6-yl]-2-azaspiro[3.3]heptan-6-yl]-1-oxa-8-azaspiro[4.5]decan-3-yl]-4-oxo-quinazolin-6-yl]oxy-4-fluoro-phenyl]-2-azaspiro[3.3]heptane-2-sulfonamide] | < 1000 nM | < 1000 nM |  |  |  |  |  |  | 50 to 90% |  | 
CCN(C)S(=O)(=O)Nc1ccc(F)c(Oc2ccc3ncn(C4CC5(CCN(C6CCC(c7cc8c(cc7F)c(N7CCC(=O)NC7=O)nn8C)CC6F)CC5)C4)c(=O)c3c2)c1C#N (single isomer, unassigned) [Compound 86] | < 1000 nM | < 1000 nM |  |  |  |  |  |  |  |  | *** (<=50%)
CCN(C)S(=O)(=O)Nc1ccc(F)c(Oc2ccc3ncc(OC4CC5(CCN(C6CCC(c7cc8c(cc7F)c(N7CCC(=O)NC7=O)nn8C)CC6)CC5)C4)nc3c2)c1C#N (single isomer, unassigned) [Compound 218, 7-[2-cyano-3-[[ethyl(methyl)sulfamoyl]amino]-6-fluoro-phenoxy]-2-[[7-[4-[3-(2,4-dioxohexahydropyrimidin-1-yl)-5-fluoro-1-methyl-indazol-6-yl]cyclohexyl]-7-azaspiro[3.5]nonan-2-yl]oxy]quinoxaline] | < 1000 nM | < 1000 nM |  |  |  | < 1000 nM | < 50% | < 1000 nM | < 50% |  | 
Cn1nc(N2CCC(=O)NC2=O)c2cc(F)c(N3CC4(CC(N5CCC6(CC5)C[C@@H](n5cnc7ccc(Oc8c(F)ccc(NS(=O)(=O)N9CC[C@@H](F)C9)c8C#N)cc7c5=O)CO6)C4)C3)cc21 [Compound 133, (3R)-N-[2-cyano-3-[3-[(3R)-8-[2-[3-(2,4-dioxohexahydropyrimidin-1-yl)-5-fluoro-1-methyl-indazol-6-yl]-2-azaspiro[3.3]heptan-6-yl]-1-oxa-8-azaspiro[4.5]decan-3-yl]-4-oxo-quinazolin-6-yl]oxy-4-fluoro-phenyl]-3-fluoro-pyrrolidine-1-sulfonamide] | < 1000 nM | > 10000 nM | < 1000 nM | < 1000 nM | < 50% | < 1000 nM | < 50% | < 1000 nM | 50 to 90% |  | 
CCN(C)S(=O)(=O)Nc1ccc(F)c(Oc2ccc3ncn([C@H]4COC5(CCN(C6CCC(c7ccc(N[C@@H]8CCC(=O)NC8=O)cc7F)CC6)CC5)C4)c(=O)c3c2)c1C#N (single isomer, unassigned) [Compound 4] | < 1000 nM | < 1000 nM | < 1000 nM | < 1000 nM | < 50% | < 1000 nM | < 50% | < 1000 nM |  | < 50% | 
CO[C@@H]1CCN(S(=O)(=O)Nc2ccc(F)c(Oc3ccc4ncn([C@H]5COC6(CCN(C7CCC(c8cc9c(cc8F)c(N8CCC(=O)NC8=O)nn9C)CC7)CC6)C5)c(=O)c4c3)c2C#N)C1 (single isomer, unassigned) [Compound 100] | < 1000 nM | < 1000 nM | < 1000 nM | < 1000 nM | < 50% | < 1000 nM | < 50% | < 1000 nM |  | < 50% | 
